The record followed here is US4892875A, “Substituted heterocyclylalkyl esters of 1,4-dihydropyridine-3,5-dicarboxylic acids” (Takeda Chemical Industries, Ltd., priority 1982, dated 1990).

Series [1] can be described thus: Acute toxicity in male and female Wistar rats. The note with it: in vivo; oral; male rat; observed 7 days. How it is done:
2-(4-Benzhydryl-1-piperazinyl)ethyl methyl 2,6-dimethyl-4-(3-nitrophenyl)-1,4-dihydropyridine-3,5-dicarboxylate dihydrochloride was suspended in a 5% solution of gum arabic and orally administered to male and female Wistar rats aged 5 weeks (body weight 105 to 139 g) in a dose of 62.5, 125, 250, 500 and 1000 mg/kg (in groups of 4 to 8) and each animal so treated was observed over a period of 7 days.

Series [2] relates to spontaneously hypertensive rats. Description: Antihypertensive action (systolic blood pressure, caudal artery) in male spontaneously hypertensive rats. The note with it: 10 mg/kg oral; for Change in blood pressure 1 hr. after treatment / Change in blood pressure 5 hrs. after treatment: after minus before medication, * P < 0.05 vs control; for Duration of antihypertensive effect: measured 1, 5, 8 and 24 hours after administration. Type of series: in vivo, rat. The procedure: Male spontaneously hypertensive rats aged 10 to 11 weeks were used (in groups of 3 to 6 individuals). […] Each test compound was suspended in a 5% solution of gum arabic and orally administered. The dosage was 10 mg/kg for all compounds. Animals in a control group was given the above solution of gum arabic only.

Series [3] shares this test system. Briefly: Renal blood flow increasing effect (renal circulation improving effect) in anesthetized male spontaneously hypertensive rats. Type of series: in vivo. The note with it: Rattus norvegicus. The procedure:
Male spontaneously hypertensive rats aged 10 to 11 weeks (3 to 6 animals per group) were anesthetized with pentobarbital and used. After laparotomy, an electromagnetic flowmeter probe (Narco) was fitted to the left renal artery and the renal blood flow was continuously recorded on a polygraph (Sanei Sokki K.K.). […] Each test compound was dissolved in polyethylene glycol 400 to prepare a stock solution. This stock solution was diluted five-fold with physiological saline and the dilution was intravenously administered to rats in a volume of 0.5 ml/kg body weight. The dosage was 0.01 mg/kg for all test compounds. The renal blood flow was measured over a period of 40 minutes following the medication. The values shown are: [formula]

Setting [4] is: 1 min, 0.01 mg/kg intravenous, 1 minute, * P < 0.05 vs control, read-out: Change in renal blood flow, 1 Minute after medication.
Where [5] appears, read: 20 min, 0.01 mg/kg intravenous, 20 minutes, * P < 0.05 vs control, read-out: Change in renal blood flow, 20 Minutes after medication.
Setting [6] is: 40 min, 0.01 mg/kg intravenous, 40 minutes, * P < 0.05 vs control, read-out: Change in renal blood flow, 40 Minutes after medication.

The structures appear in SMILES notation. Counter-ions that a name gives are not always drawn. Like-named read-outs stand apart in the source and are kept apart here.

One may read the LD50 as the dose at which mortality reaches 50%. Higher therefore signals lower toxicity. In the case of `COC(=O)C1=C(C)NC(C)=C(C(=O)OCCN2CCN(C(c3ccccc3)c3ccccc3)CC2)C1c1cccc([N+](=O)[O-])c1.Cl.Cl` (stereo not shown) [2-(4-Benzhydryl-1-piperazinyl)ethyl methyl 2,6-dimethyl-4-(3-nitrophenyl)-1,4-dihydropyridine-3,5-dicarboxylate dihydrochloride], in series [1], the LD50 at 168 h was 250 to 500 mg/kg.

On to `COC(=O)C1=C(C)NC(C)=C(C(=O)OCCN2CCN(c3cccc(C(F)(F)F)c3)CC2)C1c1cccc([N+](=O)[O-])c1` (stereo not shown) [Example 18, methyl 2-[4-(3-trifluoromethylphenyl)-1-piperazinyl]ethyl 2,6-dimethyl-4-(3-nitrophenyl)-1,4-dihydropyridine-3,5-dicarboxylate], for which the “Change in blood pressure 1 hr. after treatment” value in series [2] is given as -68 mmHg. Also, in series [2], the “Change in blood pressure 5 hrs. after treatment” value is given as -43 mmHg. The “Duration of antihypertensive effect” value in series [2] lay within 8 to 24 h. The change in vivo at 0.01 mg/kg stood at 8.8% in series [3] (setting [4]), 4.2% in series [3] (setting [5]) and 5% in series [3] (setting [6]).

For `COC(=O)C1=C(C)NC(C)=C(C(=O)OCCN2CCN(C(c3ccccc3)c3ccccc3)CC2)C1c1cccc(Cl)c1` (stereo not shown) [Example 22, 2-(4-benzhydryl-1-piperazinyl)ethyl methyl 4-(3-chlorophenyl)-2,6-dimethyl-1,4-dihydropyridine-3,5-dicarboxylate], in series [2], the “Change in blood pressure 1 hr. after treatment” value is -97 mmHg, the “Change in blood pressure 5 hrs. after treatment” value is listed as -83 mmHg and the “Duration of antihypertensive effect” value is 8 to 24 h. The change in vivo at 0.01 mg/kg in series [3] (setting [4]) is 7.5%. For the same molecule, in series [3] (setting [5]), the change in vivo at 0.01 mg/kg was determined as 7.8%. The change in vivo at 0.01 mg/kg in series [3] (setting [6]) was 9.6%.

Turning to `COC(=O)C1=C(C)NC(C)=C(C(=O)OCCN2CCN(C(c3ccccc3)c3ccccc3)CC2)C1c1cccc(C(F)(F)F)c1` (stereo not shown) [Example 23, 2-(4-benzhydryl-1-piperazinyl)ethyl methyl 2,6-dimethyl-4-(3-trifluoromethylphenyl)-1,4-dihydropyridine-3,5-dicarboxylate], in series [2], the “Change in blood pressure 1 hr. after treatment” value is on record as -59 mmHg, the “Change in blood pressure 5 hrs. after treatment” value is given as -66 mmHg and the “Duration of antihypertensive effect” value fell in the range of 8 to 24 h. In series [3] (setting [4]), the change in vivo at 0.01 mg/kg was determined as 6.7%. Besides, in series [3] (setting [5]), the change in vivo at 0.01 mg/kg was 9.7%. Also, in series [3] (setting [6]), the change in vivo at 0.01 mg/kg turned out to be 10.9%.

For the molecule `CCOC(=O)C1=C(C)NC(C)=C(C(=O)OCCN2CCN(C(c3ccc(C)cc3)c3ccc(C)cc3)CC2)C1c1cccc([N+](=O)[O-])c1` (stereo not shown) [Example 31, 2-[4-(4,4'-dimethylbenzhydryl)-1-piperazinyl]ethyl ethyl 2,6-dimethyl-4-(3-nitrophenyl)-1,4-dihydropyridine-3,5-dicarboxylate], in series [2], the “Change in blood pressure 1 hr. after treatment” value is reported as -77 mmHg, the “Change in blood pressure 5 hrs. after treatment” value was -77 mmHg and the “Duration of antihypertensive effect” value lay within 8 to 24 h. Further, in series [3] (setting [4]), the change in vivo at 0.01 mg/kg came to 3.3%. In addition, in series [3] (setting [5]), the change in vivo at 0.01 mg/kg is 4.3%. In series [3] (setting [6]), the change in vivo at 0.01 mg/kg stood at 1.8%.

Consider `COC(=O)C1=C(C)NC(C)=C(C(=O)OCCCN2CCN(C(c3ccccc3)c3ccccc3)CC2)C1c1cccc([N+](=O)[O-])c1` (stereo not shown) [Example 37, 3-(4-benzhydryl-1-piperazinyl)propyl methyl 2,6-dimethyl-4-(3-nitrophenyl)-1,4-dihydropyridine-3,5-dicarboxylate], for which, in series [2], the “Change in blood pressure 1 hr. after treatment” value is -63 mmHg, the “Change in blood pressure 5 hrs. after treatment” value is -30 mmHg and the “Duration of antihypertensive effect” value is listed as “ca. 8 hrs”. Besides, in series [3] (setting [4]), the change in vivo at 0.01 mg/kg was found to be 8.5%. For the same molecule, in series [3] (setting [5]), the change in vivo at 0.01 mg/kg was 10.8%. Moreover, in series [3] (setting [6]), the change in vivo at 0.01 mg/kg worked out at 11.3%.

`COC(=O)C1=C(C)NC(C)=C(C(=O)OCCN(C)Cc2ccccc2)C1c1cccc([N+](=O)[O-])c1` (stereo not shown) [Nicardipine.HCl, reference compound]: in series [2], the “Change in blood pressure 1 hr. after treatment” value is recorded as -38 mmHg, the “Change in blood pressure 5 hrs. after treatment” value was “+2 mmHg” and the “Duration of antihypertensive effect” value was less than 5 h. Further, the change in vivo at 0.01 mg/kg in series [3] (setting [4]) is -15%. Also, in series [3] (setting [5]), the change in vivo at 0.01 mg/kg is -1.9%. For the same molecule, in series [3] (setting [6]), the change in vivo at 0.01 mg/kg was found to be 0.3%.

Turning to `COC(=O)C1=C(C)NC(C)=C(C(=O)OC)C1c1ccccc1[N+](=O)[O-]` [Nifedipine, reference compound], in series [2], the “Change in blood pressure 1 hr. after treatment” value is -45 mmHg, the “Change in blood pressure 5 hrs. after treatment” value is on record as -3 mmHg and the “Duration of antihypertensive effect” value is less than 5 h. Further, the change in vivo at 0.01 mg/kg in series [3] (iv, 1 min, read-out: Change in renal blood flow, 1 Minute after medication) amounted to 3%. The change in vivo at 0.01 mg/kg in series [3] (iv, 20 min, read-out: Change in renal blood flow, 20 Minutes after medication) came to 3.1%. In series [3] (iv, 40 min, read-out: Change in renal blood flow, 40 Minutes after medication), the change in vivo at 0.01 mg/kg was 2.2%.
